These are literature values, as cited in patent US20060275513A1, “Diet supplement for burning additional calories, providing sustained energy, supporting weight loss, and/or improving mental focus” (priority 2005, published 2006).

The structures appear in SMILES notation.

The conditions of the data set: non-extended release format.

Consider `Cn1c(=O)c2c(ncn2C)n(C)c1=O` [Caffeine], for which the accepted half-life was 3.5 to 5 h.
